According to ChEMBL document CHEMBL1201862, “PubChem BioAssay data set” (2004):
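Briefly, cells in 96-well plates were exposed to five compound concentrations for 48 h, and endpoints were estimated by linear interpolation. GI50: concentration for 50% inhibition of growth.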 Activity calls are given as the source filed them. Cut-off read from the data, not from the text of the source: active = GI50 up to about 1.1 µM and inactive = higher.

Assays:
Experiment in all cases: NCI tumour cell line growth inhibition, 48 h
UO-31 = test system: UO-31
SK-MEL-5 = test system: SK-MEL-5
HL-60 = test system: HL-60
SR = test system: SR
SNB-75 = test system: SNB-75
RPMI-8226 = test system: RPMI-8226
MCF7 = test system: MCF7
HOP-62 = test system: HOP-62
K562 = test system: K562
HCT-116 = test system: HCT-116
Malme-3M = test system: Malme-3M
U-251 = test system: U-251
NCI-H226 = test system: NCI-H226
HT-29 = test system: HT-29
SK-OV-3 = test system: SK-OV-3
CCRF-CEM = test system: CCRF-CEM
COLO 205 = test system: COLO 205
SK-MEL-28 = test system: SK-MEL-28

Measured: GI50

C/C(=N/NC(=S)N1CCCCC1)c1cccc(/C(C)=N\NC(=S)N2CCCCC2)n1
inactive: UO-31 1.45 µM | SK-MEL-5 1.95 µM | HL-60 1.84 µM | SR 2.07 µM | SNB-75 2.62 µM | RPMI-8226 2.3 µM | MCF7 1.86 µM | HOP-62 4.71 µM | K562 2.28 µM | HCT-116 1.74 µM | Malme-3M 2.29 µM | U-251 2.04 µM | NCI-H226 2.05 µM | HT-29 2.51 µM | SK-OV-3 1.91 µM | CCRF-CEM 3 µM | COLO 205 2.43 µM | SK-MEL-28 2.01 µM

COc1cccc(C=C2N=C(c3ccccc3)N(n3c(-c4ccccc4)nc4ccccc4c3=O)C2=O)c1
inactive: UO-31 40.1 µM | SK-MEL-5 34.8 µM | HL-60 25.1 µM | SR 33.5 µM | SNB-75 44.4 µM | RPMI-8226 40.2 µM | MCF7 52 µM | HOP-62 85.1 µM | K562 68.9 µM | HCT-116 46 µM | Malme-3M > 100 µM | NCI-H226 > 100 µM | HT-29 40.9 µM | SK-OV-3 > 100 µM | CCRF-CEM 38.7 µM | COLO 205 54 µM | SK-MEL-28 63.2 µM

S=C(c1c[nH]c2ccccc12)N1CCN(Cc2ccccc2)CC1
inactive: UO-31 6.61 µM | SK-MEL-5 12.1 µM | HL-60 18.5 µM | SR 20.2 µM | SNB-75 15.5 µM | RPMI-8226 13 µM | MCF7 22.2 µM | HOP-62 18.5 µM | K562 27.1 µM | HCT-116 15.7 µM | Malme-3M 19.5 µM | U-251 19.5 µM | NCI-H226 15 µM | HT-29 16.5 µM | SK-OV-3 20.7 µM | CCRF-CEM 27.2 µM | COLO 205 16.5 µM | SK-MEL-28 17.3 µM

CC(C)(C)C(=O)CC1=Nc2ccccc2SC1(O)CC(=O)C(C)(C)C (stereo not drawn)
inactive: UO-31 12.3 µM | SK-MEL-5 18.9 µM | HL-60 30.9 µM | SR 11.8 µM | RPMI-8226 8.67 µM | MCF7 25 µM | HOP-62 26.3 µM | K562 21.5 µM | HCT-116 24 µM | Malme-3M 33.3 µM | U-251 22.2 µM | NCI-H226 15.2 µM | HT-29 17.1 µM | SK-OV-3 13.5 µM | CCRF-CEM 8.49 µM | COLO 205 16.3 µM | SK-MEL-28 22.8 µM

C=C[C@@H]1OC(=O)O[C@H]1CO
inactive: UO-31 > 100 µM | SK-MEL-5 > 100 µM | SR > 100 µM | SNB-75 > 100 µM | RPMI-8226 > 100 µM | MCF7 > 100 µM | HOP-62 > 100 µM | K562 > 100 µM | HCT-116 > 100 µM | Malme-3M > 100 µM | U-251 > 100 µM | NCI-H226 > 100 µM | HT-29 > 100 µM | SK-OV-3 > 100 µM | CCRF-CEM > 100 µM | COLO 205 > 100 µM | SK-MEL-28 > 100 µM

C=C1CC2C[C@H](OS(=O)(=O)c3ccc(C)cc3)C(C1)N2C (stereo partly drawn)
inactive: UO-31 > 100 µM | SK-MEL-5 > 100 µM | HL-60 > 100 µM | SR > 100 µM | SNB-75 61.9 µM | RPMI-8226 > 100 µM | MCF7 > 100 µM | HOP-62 > 100 µM | K562 > 100 µM | HCT-116 > 100 µM | Malme-3M > 100 µM | U-251 > 100 µM | NCI-H226 > 100 µM | HT-29 > 100 µM | SK-OV-3 > 100 µM | CCRF-CEM > 100 µM | COLO 205 > 100 µM | SK-MEL-28 > 100 µM

O=[N+]([O-])C1(C2([N+](=O)[O-])CCCC2)CCCC1
inactive: UO-31 57.1 µM | SK-MEL-5 > 100 µM | HL-60 > 100 µM | SR > 100 µM | SNB-75 61 µM | RPMI-8226 > 100 µM | MCF7 > 100 µM | K562 > 100 µM | HCT-116 > 100 µM | Malme-3M > 100 µM | U-251 > 100 µM | NCI-H226 > 100 µM | HT-29 > 100 µM | SK-OV-3 > 100 µM | CCRF-CEM > 100 µM | COLO 205 > 100 µM | SK-MEL-28 > 100 µM

CC1C(OC2O[C@@H]3O[C@@]4(C)CC[C@H]5[C@H](C)CC[C@@H](C2C)[C@@]35O4)O[C@@H]2O[C@@]3(C)CC[C@H]4[C@H](C)CC[C@@H]1[C@@]24O3 (stereo partly drawn)
inactive: SK-MEL-5 > 50 µM | HL-60 > 50 µM | SR > 50 µM | SNB-75 > 50 µM | RPMI-8226 > 50 µM | MCF7 > 50 µM | HOP-62 > 50 µM | K562 > 50 µM | HCT-116 > 50 µM | Malme-3M > 50 µM | U-251 > 50 µM | NCI-H226 > 50 µM | HT-29 > 50 µM | SK-OV-3 > 50 µM | CCRF-CEM > 50 µM | COLO 205 > 50 µM | SK-MEL-28 > 50 µM

Cc1c(F)c(N)c2c(=O)cc(-c3ccc(NC(=O)CN(C)C)c(F)c3)oc2c1F
inactive: UO-31 86.1 µM | SK-MEL-5 53.5 µM | HL-60 18.4 µM | SR 17.6 µM | RPMI-8226 23.7 µM | MCF7 7.29 µM | K562 26.7 µM | HCT-116 > 100 µM | Malme-3M > 100 µM | U-251 24.8 µM | NCI-H226 11 µM | HT-29 33.6 µM | SK-OV-3 > 100 µM | CCRF-CEM 21 µM | COLO 205 36.6 µM | SK-MEL-28 47.9 µM

O=C(Nc1ccc2nc(O)n[n+]([O-])c2c1)C(F)(F)F
inactive: UO-31 > 100 µM | SK-MEL-5 > 100 µM | HL-60 > 100 µM | SR > 100 µM | SNB-75 > 100 µM | RPMI-8226 > 100 µM | MCF7 > 100 µM | HOP-62 > 100 µM | K562 > 100 µM | HCT-116 > 100 µM | U-251 > 100 µM | NCI-H226 > 100 µM | HT-29 > 100 µM | SK-OV-3 > 100 µM | CCRF-CEM > 100 µM | COLO 205 > 100 µM | SK-MEL-28 > 100 µM

Cc1ncc([N+](=O)[O-])n1CCNC(=O)CCCCn1ccnc1[N+](=O)[O-]
inactive: UO-31 > 100 µM | SK-MEL-5 > 100 µM | HL-60 > 100 µM | SR > 100 µM | SNB-75 97.5 µM | MCF7 > 100 µM | HOP-62 > 100 µM | K562 > 100 µM | HCT-116 > 100 µM | Malme-3M > 100 µM | U-251 > 100 µM | NCI-H226 > 100 µM | HT-29 > 100 µM | SK-OV-3 > 100 µM | CCRF-CEM > 100 µM | COLO 205 36.3 µM
